What was measured:
Assay in all cases: relative viability (nuclei count vs DMSO), 5 days (fraction); higher = more cells survive
Bosutinib + Navitoclax = compound: COc1cc(Nc2c(C#N)cnc3cc(OCCCN4CCN(C)CC4)c(OC)cc23)c(Cl)cc1Cl [Bosutinib] + CC1(C)CCC(c2ccc(Cl)cc2)=C(CN2CCN(c3ccc(C(=O)NS(=O)(=O)c4ccc(N[C@H](CCN5CCOCC5)CSc5ccccc5)c(S(=O)(=O)C(F)(F)F)c4)cc3)CC2)C1 [Navitoclax] (partner 0.5 µM)
Summary of the method: (§1)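 Each reported value is a median over duplicate plates. It expresses relative viability: treated-well nuclei count divided by vehicle-well nuclei count. Lung cancer cell lines in 1536-well plates were dosed by pin tool a day after seeding, alone with one drug or with a fixed anchor-drug dose plus five library-drug doses (not always all listed) in √10 steps, and nuclei were counted after 5 days.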

Bosutinib + Foretinib = compound: COc1cc(Nc2c(C#N)cnc3cc(OCCCN4CCN(C)CC4)c(OC)cc23)c(Cl)cc1Cl [Bosutinib] + COc1cc2c(Oc3ccc(NC(=O)C4(C(=O)Nc5ccc(F)cc5)CC4)cc3F)ccnc2cc1OCCCN1CCOCC1 [Foretinib] (partner 0.25 µM)
Summary of the method: as §1

Bosutinib + Tozasertib = compound: COc1cc(Nc2c(C#N)cnc3cc(OCCCN4CCN(C)CC4)c(OC)cc23)c(Cl)cc1Cl [Bosutinib] + Cc1cc(Nc2cc(N3CCN(C)CC3)nc(Sc3ccc(NC(=O)C4CC4)cc3)n2)n[nH]1 [Tozasertib] (partner 0.1 µM)
Summary of the method: as §1

Bosutinib + Dasatinib = compound: COc1cc(Nc2c(C#N)cnc3cc(OCCCN4CCN(C)CC4)c(OC)cc23)c(Cl)cc1Cl [Bosutinib] + Cc1nc(Nc2ncc(C(=O)Nc3c(C)cccc3Cl)s2)cc(N2CCN(CCO)CC2)n1 [Dasatinib] (partner 0.075 µM)
Summary of the method: as §1

Bosutinib + Decitabine = compound: COc1cc(Nc2c(C#N)cnc3cc(OCCCN4CCN(C)CC4)c(OC)cc23)c(Cl)cc1Cl [Bosutinib] + Nc1ncn([C@H]2C[C@H](O)[C@@H](CO)O2)c(=O)n1 [Decitabine] (partner 2 µM)
Summary of the method: as §1

| Cell Line | relative viability (Bosutinib + Navitoclax; first compound 0.01 µM) | relative viability (Bosutinib + Navitoclax; first compound 0.03162 µM) | relative viability (Bosutinib + Navitoclax; first compound 0.1 µM) | relative viability (Bosutinib + Navitoclax; first compound 1 µM) | relative viability (Bosutinib + Foretinib; first compound 0.01 µM) | relative viability (Bosutinib + Foretinib; first compound 0.03162 µM) | relative viability (Bosutinib + Foretinib; first compound 0.1 µM) | relative viability (Bosutinib + Foretinib; first compound 1 µM) | relative viability (Bosutinib + Tozasertib; first compound 0.01 µM) | relative viability (Bosutinib + Tozasertib; first compound 0.03162 µM) | relative viability (Bosutinib + Tozasertib; first compound 0.1 µM) | relative viability (Bosutinib + Tozasertib; first compound 1 µM) | relative viability (Bosutinib + Dasatinib; first compound 0.01 µM) | relative viability (Bosutinib + Dasatinib; first compound 0.03162 µM) | relative viability (Bosutinib + Dasatinib; first compound 0.1 µM) | relative viability (Bosutinib + Dasatinib; first compound 1 µM) | relative viability (Bosutinib + Decitabine; first compound 0.01 µM) | relative viability (Bosutinib + Decitabine; first compound 0.03162 µM) | relative viability (Bosutinib + Decitabine; first compound 0.1 µM) | relative viability (Bosutinib + Decitabine; first compound 1 µM) |
| --- | --- | --- | --- | --- | --- | --- | --- | --- | --- | --- | --- | --- | --- | --- | --- | --- | --- | --- | --- | --- |
| HCC-15 | 0.707 | 0.715 | 0.741 | 0.689 | 1.07 | 1.05 | 1.04 | 0.874 | 0.474 | 0.418 | 0.361 | 0.328 | 0.651 | 0.662 | 0.678 | 0.674 | 0.653 | 0.659 | 0.659 | 0.609 |
| HCC-44 | 1.03 | 0.926 | 0.969 | 0.849 | – | – | – | – | 1.07 | 1.18 | 1.09 | 0.685 | – | – | – | – | 0.97 | 0.995 | 0.971 | 0.987 |
| HCC-78 | 0.798 | 0.737 | 0.752 | 0.661 | 0.553 | 0.506 | 0.571 | 0.52 | 0.406 | 0.327 | 0.439 | 0.384 | 0.356 | 0.478 | 0.46 | 0.373 | 0.768 | 0.698 | 0.761 | 0.676 |
| HCC-366 | 1.08 | 1.05 | 0.997 | 0.49 | 0.884 | 0.97 | 0.971 | 0.879 | 0.161 | 0.142 | 0.104 | 0.0934 | 0.755 | 0.627 | 0.692 | 0.66 | 0.348 | 0.365 | 0.312 | 0.265 |
| HCC-827 | 1 | 0.986 | 1.04 | 0.933 | 0.965 | 1.04 | 1.02 | 0.203 | 0.406 | 0.442 | 0.436 | 0.166 | 0.287 | 0.279 | 0.307 | 0.178 | 0.306 | 0.37 | 0.404 | 0.186 |
| HOP-62 | 0.901 | 0.982 | 1.04 | 1.09 | 1.11 | 0.965 | 1.13 | 1.12 | 0.394 | 0.411 | 0.35 | 0.381 | 0.692 | 0.639 | 0.671 | 0.688 | 0.208 | 0.215 | 0.209 | 0.253 |
| IA-LM | 0.779 | 0.816 | 0.842 | 0.764 | 1.1 | 1.18 | 1.14 | 0.982 | – | – | – | – | – | – | – | – | – | – | – | – |
| LCLC-103H | – | – | – | – | 0.844 | 0.674 | 0.804 | 0.878 | 0.486 | 0.497 | 0.48 | 0.484 | 0.513 | 0.502 | 0.567 | 0.449 | 0.744 | 0.792 | 0.723 | 0.69 |
| NCI-H358 | – | – | – | – | 0.896 | 0.705 | 0.648 | 0.494 | 0.101 | 0.106 | 0.109 | 0.113 | 0.2 | 0.201 | 0.206 | 0.366 | 0.211 | 0.213 | 0.209 | 0.218 |
| NCI-H522 | – | – | – | – | – | – | – | – | 0.564 | 0.504 | 0.604 | 0.485 | 0.89 | 0.691 | 0.794 | 0.979 | 0.572 | 0.671 | 0.698 | 0.658 |
| NCI-H650 | – | – | – | – | 1.05 | 1 | 1.09 | 1.04 | 0.74 | 0.772 | 0.721 | 0.801 | 0.47 | 0.502 | 0.488 | 0.552 | 0.327 | 0.295 | 0.29 | 0.419 |
| NCI-H661 | – | – | – | – | 1.07 | 0.995 | 0.968 | 0.596 | 0.34 | 0.362 | 0.385 | 0.425 | 0.947 | 0.883 | 0.884 | 0.814 | 0.57 | 0.537 | 0.521 | 0.426 |
| NCI-H1563 | – | – | – | – | 0.917 | 0.953 | 0.846 | 0.676 | – | – | – | – | 0.444 | 0.47 | 0.446 | 0.472 | – | – | – | – |
| NCI-H1703 | 0.985 | 1.06 | 0.922 | 0.43 | 0.371 | 0.345 | 0.334 | 0.246 | – | – | – | – | – | – | – | – | – | – | – | – |
| NCI-H1792 | 0.68 | 0.682 | 0.67 | 0.619 | – | – | – | – | – | – | – | – | 0.805 | 0.796 | 0.875 | 0.781 | 0.611 | 0.561 | 0.623 | 0.417 |
| NCI-H2228 | 0.84 | – | 1.03 | 0.732 | 0.762 | 0.931 | 0.887 | 0.744 | 0.313 | 0.319 | 0.306 | 0.287 | 0.494 | 0.474 | 0.56 | 0.62 | – | – | – | – |
| NCI-H2342 | – | – | – | – | 0.903 | 0.994 | 0.999 | 1.05 | 0.51 | 0.449 | 0.526 | 0.517 | 0.289 | 0.305 | 0.317 | 0.344 | 0.691 | 0.744 | 0.726 | 0.855 |
| SW 900 | – | – | – | – | 0.806 | – | 1.04 | 0.721 | 0.521 | – | 0.586 | 0.507 | 0.774 | – | 0.682 | 0.749 | 0.408 | 0.438 | 0.427 | 0.424 |
